Measurements as given in patent US20130071897A1, “METHOD FOR CONTROLLING UNDESIRABLE BYPRODUCTS FORMATION CAUSED BY CONTAMINATING ORGANISMS IN THE PRODUCTION OF ETHANOL FROM SYNGAS” (COSKATA, INC., priority 2011, published 2013).
Where “and” joins values, the source holds several entries; their conditions need not be identical. Equal values may be shown once.

Assays:
[1] = test system: Clostridium tyrobutyricum; experiment: Butyric acid by gas chromatography in Clostridium tyrobutyricum batch fermentations; assay type: cell-based; settings: for Butyrate Production: Table 19, duplicates A and B
Protocol: The concentration of butyric acid is determined by gas chromatography for several of the above samples at the stated points in time. The butyrate production is calculated based upon peak area calculations generated by the gas chromatograph. At 11 hours, the concentration of butyric acid for each of the controls is about 0.95 gram per liter, and the concentration of butyric acid for the samples containing 500 ppm of the inhibitor are about 0.6 gram per liter.
The concentration of butyric acid is determined by gas chromatography using the procedure set forth in Example 13. The control is reported only in Table 18.

acyl-CoA dehydrogenases = experiment: In vitro acyl-CoA dehydrogenase ferrocenium assay with C. tyrobutyricum cell-free extract; assay type: biochemical; settings: 0.5 to 10 mM compound; rate of ferrocenium reduction at 300 nm
Protocol: Lehman, et al., in An Acyl-Coenzyme A Dehydrogenase Assay Utilizing the Ferricenium Ion, Analytical Biochemistry 186, pages 280-284 (1990), disclose an in vitro assay screening technique for acyl-CoA dehydrogenases for determining enzyme deficiencies in children. An adaptation of this technique was explored as a potential screening method for ascertaining potential butyrogen inhibitors. An aqueous assay liquor is prepared such that each 1 milliliter sample contains 50 mM of TrisHCl buffer (pH 7.6); 0.05 mM of butyryl-CoA; 5 micromoles of FAD (flavin adenine dinucleotide) and 0.4 mM of ferrocenium. Whole cells of C. tyrobutyricum are lysed and are added to the assay liquor. […] The abbreviation mM stands for millimolar. To assure metabolic consistency among the samples a master batch of C. tyrobutyricum is prepared and harvested at the early log growth stage (approximate O.D. of between about 0.5 and 0.7). The master batch fermentation broth is centrifuged and rinsed with 50 mM TrisHCl buffer (pH 7.6), centrifuged and reconstituted with 50 mM TrisHCl buffer (pH 7.6) to be 10 times more concentrated than the original master batch. Aliquots of about 0.5 milliliter are placed into cryogenic vials (about 1.8 milliliter capacity) and frozen at −80° C. until needed. When needed, a vial is placed in an anoxic Coy chamber and allowed to thaw to room temperature. Once thawed, the cells are added to a 15 mL centrifuge tube and diluted with 0.5 mL of a 2 mg/mL solution of lysozyme (purchased from Aldrich) in 50 mM Tris-HCl (final concentration of lysozyme is about 1 mg/mL). The centrifuge tube is inverted 5 times, removed from the Coy chamber and allowed to incubate at 37° C. for 30 minutes. […] The centrifuge tube is vortexed in the Coy chamber for about 30 seconds, removed from the chamber and centrifuged for 15 minutes at 4000 rpm and 4° C. The tube is returned to the chamber and the cell-free extract (supernatant) is used to prepare the above described samples. The samples are analyzed at various times by absorbance spectroscopy at 300 nm using a Thermo Scientific Evolution 300 UV/Vis spectrophotometer with a 7-cuvette carousel and Starna quartz cuvettes with a septum cap to determine the amount of reduction of ferrocenium. The sample is at laboratory temperature and is maintained under anaerobic conditions. Typically, the absorbance is measured over a period of about 10 to 20 minutes which is sufficient time for the absorbance to stop changing. A linear slope of the rate of change in absorbance during the period that the absorbance is changing is determined using Microsoft Excel® 2010 linear regression to generate a straight line from the data points. The more gradual the slope, the better inhibition because the enzyme is slower at reducing the ferrocenium in the assay sample. A dose-response curve is then determined for each compound by plotting the linear slope against the respective compound concentration. A linear slope is then determined for each compound using Microsoft Excel® 2010 linear regression to generate a straight line from the data points. The steeper the dose-response slope, the better the inhibition because the increased concentration of the compound causes more of a difference in enzyme activity. The dose-response slope generally has a broad standard of deviation due to experimental imprecision and slope determinations.

[2] = test system: Clostridium tyrobutyricum; experiment: Serum bottle batch fermentation of Clostridium tyrobutyricum on fructose, optical density; assay type: cell-based; settings: duplicates A and B; for O.D. Response: Table 17
Protocol: Ethyl 3-(trifluoromethyl)benzoate is evaluated in a series of batch fermentations to determine the growth response of butyrogens to the presence of this compound at varying concentrations. The batch fermentations are conducted by anoxically filling 100 mL serum bottles with 15 mL of media having the composition given in Tables 12 and 13. About 0.15 mL of a 50% w/w solution of fructose in water (final fructose concentration about 5 g/L) is provided in the bottles. Duplicate runs are conducted for each concentration.
(§1) Each bottle is inoculated with 1.5 mL of seed culture inoculum of the strict butyrogen Clostridium tyrobutyricum, which has an OD of about 0.40 (which upon a 10 times dilution provides a starting OD for the fermentation of about 0.04). The bottles are maintained at a temperature of 37° C. Two hours after inoculation of the bottles with the bacteria, the compound is added to different bottles as a solution in 50 μL of N-methylpyrrolidone in the amounts indicated in Table 15. The fermentation process is allowed to progress at 37° C. At selected intervals of time, bacterial growth is measured by reading the optical density (OD) of the fermentation liquid. Optical density is measured by anoxically removing an aliquot of fermentation liquid and adding it to a disposable cuvette. OD's ranging between 0.01 and 0.4 are measured directly, while OD's greater than 0.4 are measure after performing a 1/10 dilution with water.
In this example ethyl 4,4,4-trifluoro-3-(trifluoromethyl)crotonate and ethyl 3-trifluoromethyl-4-methoxybenzoate are evaluated by batch fermentation. The batch fermentations are conducted by anoxically filling 100 mL serum bottles with 15 mL of media having the composition given in Tables 12 and 13. About 0.15 mL of a 50% w/w solution of fructose in water (final fructose concentration about 5 g/L) is provided in the bottles. Duplicate runs are conducted for each concentration.
as §1, with “of about 0.42 (which upon” for “of about 0.40 (which upon”, “of about 0.042). The bottles” for “of about 0.04). The bottles”, “in Table 16 and 17. The fermentation” for “in Table 15. The fermentation”, “0.4 are measured after performing” for “0.4 are measure after performing”

For CCOC(=O)c1cccc(C(F)(F)F)c1 [Ethyl 3-trifluormethylbenzoate], the “Concentration of butyric acid” value ([1]; 500 ppm, at 11 hours) was “about 0.6 gram per liter”, the “Dose-Response Slope” value (acyl-CoA dehydrogenases) was 9 and the “O.D. Response to Varying Inhibitor Concentrations” value ([2]; 500 ppm, 0 Hours, added 2 h after inoculation) was 0.04. For the same molecule, the “O.D. Response to Varying Inhibitor Concentrations” value ([2]; 500 ppm, 2 Hours, added 2 h after inoculation) was 0.09, the “O.D. Response to Varying Inhibitor Concentrations” value ([2]; 500 ppm, 3.5 Hours) was 0.14 and the “O.D. Response to Varying Inhibitor Concentrations” value ([2]; 500 ppm, 5.25 Hours, listed as Ethyl 3-(trifluoromethyl)benzoate) was 0.21 and 0.23. For the same molecule, the “O.D. Response to Varying Inhibitor Concentrations” value ([2]; 500 ppm, 11 Hours, listed as Ethyl 3-(trifluoromethyl)benzoate) was 0.90 and 0.89, the “O.D. Response to Varying Inhibitor Concentrations” value ([2]; 500 ppm, 20.5 Hours, listed as Ethyl 3-(trifluoromethyl)benzoate) was 1.53 and 1.44 and the “O.D. Response to Varying Inhibitor Concentrations” value ([2]; 1000 ppm, 0 Hours, added 2 h after inoculation) was 0.04. The “O.D. Response to Varying Inhibitor Concentrations” value ([2]; 1000 ppm, 2 Hours, added 2 h after inoculation) was 0.09, the “O.D. Response to Varying Inhibitor Concentrations” value ([2]; 1000 ppm, 3.5 Hours) was 0.15 and the “O.D. Response to Varying Inhibitor Concentrations” value ([2]; 1000 ppm, 5.25 Hours, listed as Ethyl 3-(trifluoromethyl)benzoate) was 0.21 and 0.22. The “O.D. Response to Varying Inhibitor Concentrations” value ([2]; 1000 ppm, 11 Hours, listed as Ethyl 3-(trifluoromethyl)benzoate) was 0.90 and 0.87 and the “O.D. Response to Varying Inhibitor Concentrations” value ([2]; 1000 ppm, 20.5 Hours, listed as Ethyl 3-(trifluoromethyl)benzoate) was 1.42 and 1.37.
For CCOC(=O)c1ccc(OC)c(C(F)(F)F)c1 [ethyl 3-trifluoromethyl-4-methoxybenzoate], the “Butyrate Production” value ([1]; 5 mM, 6 Hours) was 0.19 grams per liter and 0.10 grams per liter, the “Butyrate Production” value ([1]; 10 mM, 2 Hours) was 0.03 grams per liter and the “Butyrate Production” value ([1]; 10 mM, 4.5 Hours) was 0.69 grams per liter and 0.67 grams per liter. For the same molecule, the “Butyrate Production” value ([1]; 10 mM, 6 Hours) was 0.11 grams per liter and 0.10 grams per liter, the “Butyrate Production” value ([1]; 10 mM, 24 Hours) was 0.19 grams per liter and 0.17 grams per liter and the “O.D. Response” value ([2]; 5 mM, 0 Hours, added 2 h after inoculation) was 0.42. The “O.D. Response” value ([2]; 5 mM, 2 Hours, added 2 h after inoculation) was 0.11 and 0.12, the “O.D. Response” value ([2]; 5 mM, 4.5 Hours) was 0.20 and 0.18 and the “O.D. Response” value ([2]; 5 mM, 6 Hours) was 0.16 and 0.10. The “O.D. Response” value ([2]; 5 mM, 24 Hours) was 1.23 and 0.91, the “O.D. Response” value ([2]; 10 mM, 0 Hours, added 2 h after inoculation) was 0.42 and the “O.D. Response” value ([2]; 10 mM, 2 Hours, added 2 h after inoculation) was 0.11. The “O.D. Response” value ([2]; 10 mM, 4.5 Hours) was 0.24 and 0.23, the “O.D. Response” value ([2]; 10 mM, 6 Hours) was 0.12 and 0.13 and the “O.D. Response” value ([2]; 10 mM, 24 Hours) was 1.22 and 1.19.
